The target in one test is T1, rabbit aldolase (ALDOA) (Oryctolagus cuniculus, UniProt P00883).
T1 construct: rabbit aldolase (ammonium sulfate precipitated; A8811)
T1 sequence (P00883 2-364): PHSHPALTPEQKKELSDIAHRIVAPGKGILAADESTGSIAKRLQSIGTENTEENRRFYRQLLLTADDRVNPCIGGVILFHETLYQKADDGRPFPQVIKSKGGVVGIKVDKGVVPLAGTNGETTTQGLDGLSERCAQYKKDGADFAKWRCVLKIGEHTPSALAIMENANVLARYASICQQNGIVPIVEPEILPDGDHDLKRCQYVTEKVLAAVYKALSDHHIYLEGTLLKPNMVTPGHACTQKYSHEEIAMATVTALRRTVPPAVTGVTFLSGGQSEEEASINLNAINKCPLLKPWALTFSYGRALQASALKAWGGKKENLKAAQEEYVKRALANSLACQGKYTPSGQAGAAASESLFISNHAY
The test can be described thus: SPR (CM5 chip, Biacore 8K); also MS adduct on Lys230 and enzymatic inhibition (IC50 about […]). It is filed as binding. A general note: SPR reads the build-up and loss of mass on a sensor chip optically.

The next test has as its target T2, ALDOA (Homo sapiens, UniProt P04075).
T2 construct: full-length, His-tagged, bacterially expressed and purified
T2 sequence (P04075 2-364): T1 sequence (P00883 2-364) with H2Y, S3Q, H4Y, Y243F, V267I, I358V
The test can be described thus: aldolase/TPI/GPDH-coupled NADH assay. In kind it is biochemical.

The structures appear in SMILES notation. Where a chain is given by its changes, count along the chain named.

A word on the Kd: it is the constant that tells how readily two partners part at equilibrium. A lower Kd goes with higher affinity. As a reminder, the IC50 is the concentration that gives 50% inhibition. The low end stands for inhibition by little substance, the high end for a need for much substance. Regarding `CCCCCCCCCCCCCCCCn1cc[n+](Cc2c(Cl)cccc2Cl)c1C` [LXY-05-029, aldometanib], the dissociation constant Kd on rabbit aldolase (ALDOA) was roughly 20 µM. For the same compound, the concentration for half-maximal inhibition (IC50) against ALDOA was roughly 50 µM.

(Values after PMC9584815, “The aldolase inhibitor aldometanib mimics glucose starvation to activate lysosomal AMPK” (Nature Metabolism, 2022).)
